Measured values as given in paper PMC10179701, “Towards Protection of Nucleic Acids from Herbicide Attack: Self-Assembly of Betaines Based on Pillar[5]arene with Glyphosate and DNA” (International Journal of Molecular Sciences, 2023).
Marks after values point to notes of the source that are not given here.

Legend:
DNA from salmon sperm = test: UV-Vis spectrophotometric titration, association with DNA from salmon sperm; type: binding; conditions: 1:1 complex, Tris-HCl buffer pH 7.44, CDNA 2.5 × 10^–7 M, BindFit
Experimental: The interaction of GIS with a series of synthesized pillar[5]arenes 1–4 and DNA was studied by UV-Vis spectroscopy. UV-Vis spectroscopy is a universal method to study the complex properties of synthetic receptors. The interaction of GIS with DNA from salmon sperm was initially studied (Figure 5). DNA from salmon sperm was chosen as a model substrate due to its relatively low molecular weight and small size. The experiments were carried out in a Tris-HCl buffer system (pH = 7.44).
The association constants were determined by spectrophotometric titration to quantify the interaction of DNA with GIS. The UV-Vis spectra of the DNA–GIS system were recorded in such a way that the DNA concentration remained constant (2.5 × 10^–7 M), and the herbicide concentration ratio increased from 1:0.3 to 1:10 (Figure 5b). The obtained experimental data were processed by the BindFit program. The association constant of a 1:1 complex was calculated (Figure S23). The logarithm of the association constant of DNA with GIS was determined as lgKa = 4.92. […] However, in this case, the association constant of the complexes was determined with a large error.
Further, the interaction of macrocycles 1–4 with the DNA from salmon sperm in Tris-HCl was studied by UV-Vis spectroscopy. […] The association constant of compound 4-DNA complex was determined by spectrophotometric titration. […] The logarithm of the association constant of pillar[5]arene 4 with the DNA was determined as lgKa (4–DNA) = 5.24.
The association constant of compound 1-DNA complex was also determined by spectrophotometric titration (Figure S25b). The logarithm of the association constant of pillar[5]arene 1 with DNA was determined as lgKa(1–DNA) = 4.88 (Figure S27). […]
buffer solution. The UV spectra of the solutions were then recorded. The stability constant of complex was calculated by Bindfit. […]
volume of 3 mL with Tris‐HCl buffer solution. The UV spectra of the solutions were then recorded. The stability constant of each complex was calculated by Bindfit. […]
stability constant of complex was calculated by Bindfit. […]

[1] = Dynamic light scattering of macrocycle aggregates in water; type: physicochemical; conditions: H2O, 298 K
Experimental: The next stage of the work was the study of aggregation properties of both previously synthesized ester derivatives of amino acids 1 and 2, and macrocyclic betaine derivatives 3 and 4 by dynamic light scattering (DLS). The study was carried out in water in the 1 × 10^–6–1 × 10^–4 M concentration range (Figures S11–S22). The size of associates increases with decreasing macrocycle 1 concentration in solution (Table 1). A different pattern is observed for betaine derivative 3. Thus, the particles become coarser, and the polydispersity index (PDI) of the systems increased with an increase in compound 3 concentration, which is probably due to the formation of β-sheets by oligopeptide substituents. The presence of two oppositely charged fragments in one substituent leads to the fact that compound 3 becomes similar to surfactant molecules in terms of its aggregation properties.

A549 cells [2] = test: MTT test, A549 cells; conditions: for IC50: A549, MTT, 24 h; for cytotoxic activity: A549, concentration range 2–100 μg/mL
Experimental: (§1) The next stage of this work was the study of pillar[5]arenes 1–4 ability to inhibit the viability and proliferative activity of embryonic lung epithelial (LEC) and human lung adenocarcinoma (A549) cells using the MTT test.
(§2) Further, the ability of GIS to inhibit the viability and proliferative activity of LEC and A549 cells was studied by the MTT test. […] The average inhibitory concentration (IC50) was calculated for GIS (Table 3). […]
(§3) 1.6. Cytotoxicity of pillar[5]arenes 1–4, GIS and their mixtures on A549 and LEC Cell Lines […]
(§4) activity of LEC cells and A549 cells was investigated using the MTT test according to [2]. A549 – human alveolar adenocarcinoma cell line (ATCC, Rockville, Maryland, USA) and cow embryo lung epithelial (LEC) cells (Animal Cell Culture Collection of Russian Academy of Agricultural Science, Kazan, Russia) were cultured in DMEM (GIBCO, Waltham, MA, USA) medium supplemented with 10% serum and 100 units/mL of penicillin (PanEco, Moscow, Russia) and streptomycin (PanEco, Moscow, Russia) in a humidified atmosphere with 5% CO2 at 37 °C. Cells were seeded in 96‐well plates at a concentration of 10^4 cells/well. After 24 h of cultivation, the medium was removed from the wells and replaced with a fresh one with the addition of the test substances. The volume of the culture medium in the wells was 100
(§5) μL. After 24 h incubation of cells in the presence of substances, the medium in the wells was replaced with a fresh one containing MTT reagent at a final concentration of 0.5 mg/mL. The cells were incubated with MTT for 4 h at 37 °C in an atmosphere of 5% CO2. Then, the medium was aspirated from the wells and 100 μL of dimethyl sulfoxide was added. Probes were incubated at 37 °C for 15 min in the dark for the formazan crystals to dissolve. The optical density of the formazan solution in the wells was measured using a plate reader (BioRad xMarkTM Microplate Spectrophotometer, USA) at a wavelength of 570 nm.
(§6) Three series of experiments were carried out with at least 8 replications for each variant in the series. […]

LEC cells = test: MTT test, LEC cells; conditions: for IC50: MTT, 24 h; for cytotoxic activity: concentration range 2–100 μg/mL
Experimental: as §1, §2, §3, §4, §5, §6

A549 cells [3] = test: MTT assay, combined action of macrocycles with GIS on A549 cells; type: cell-based, human; conditions: A549, pillararene 1 × 10^–5 M with GIS 3.47 × 10^–2 M
Experimental: The ability to inhibit the viability and proliferative activity of A549 cells of macrocycles 1–4 in the presence of GIS was studied using the MTT assay. […] The developed approach opens up the possibility of creating pillar[5]arene-based herbicide antidotes. […]
fresh one with the addition of the test substances.
Then, the medium was aspirated from the wells
and 100 μL of dimethyl sulfoxide was added.
the formazan crystals to dissolve. […]
substances. […] After 24 h of incubation cells were […]

polydispersity index (PDI) ([1]; 1 × 10^–4 M) | size of aggregates d ([1]; 1 × 10^–4 M) | polydispersity index (PDI) ([1]; 1 × 10^–5 M) | size of aggregates d ([1]; 1 × 10^–5 M) | polydispersity index (PDI) ([1]; 1 × 10^–6 M) | size of aggregates d ([1]; 1 × 10^–6 M) | IC50 (A549 cells [2]) | SMILES | lgKa, logarithm of the association constant with DNA (DNA from salmon sperm) | cytotoxic activity (A549 cells [2]) | IC50 (LEC cells) | cytotoxic activity (LEC cells) | change of toxicity on combined action with GIS (A549 cells [3]) | concentration at which cytotoxic effect was recorded (A549 cells [2]; A549) | concentration without ability to reduce viability (A549 cells [2]; A549) | concentration at which cytotoxic effect was recorded (LEC cells) | concentration without ability to reduce viability (LEC cells)
0.37 | 249 ± 17 nm | 0.35 | 286 ± 57 nm | 0.39 | 441 ± 81 nm | >100 * μg/mL | CCOC(=O)CNC(=O)CNC(=O)C[N+](C)(C)CCCNC(=O)COc1cc2c(OCC(=O)NCCC[N+](C)(C)CC(=O)NCC(=O)NCC(=O)OCC)cc1Cc1cc(OCC(=O)NCCC[N+](C)(C)CC(=O)NCC(=O)NCC(=O)OCC)c(cc1OCC(=O)NCCC[N+](C)(C)CC(=O)NCC(=O)NCC(=O)OCC)Cc1cc(OCC(=O)NCCC[N+](C)(C)CC(=O)NCC(=O)NCC(=O)OCC)c(cc1OCC(=O)NCCC[N+](C)(C)CC(=O)NCC(=O)NCC(=O)OCC)Cc1cc(OCC(=O)NCCC[N+](C)(C)CC(=O)NCC(=O)NCC(=O)OCC)c(cc1OCC(=O)NCCC[N+](C)(C)CC(=O)NCC(=O)NCC(=O)OCC)Cc1cc(OCC(=O)NCCC[N+](C)(C)CC(=O)NCC(=O)NCC(=O)OCC)c(cc1OCC(=O)NCCC[N+](C)(C)CC(=O)NCC(=O)NCC(=O)OCC)C2.[Br-].[Br-].[Br-].[Br-].[Br-].[Br-].[Br-].[Br-].[Br-].[Br-] [Compound 1] | 4.88 | did not show statistically significant cytotoxic activity | >100 * μg/mL | did not show statistically significant cytotoxic activity | slight decrease in toxicity |  |  |  | 
0.55 | 565 ± 12 nm | 0.43 | 290 ± 38 nm | 0.39 | 276 ± 63 nm | >100 * μg/mL | C[N+](C)(CCCNC(=O)COc1cc2c(OCC(=O)NCCC[N+](C)(C)CC(=O)NCC(=O)NCC(=O)[O-])cc1Cc1cc(OCC(=O)NCCC[N+](C)(C)CC(=O)NCC(=O)NCC(=O)[O-])c(cc1OCC(=O)NCCC[N+](C)(C)CC(=O)NCC(=O)NCC(=O)[O-])Cc1cc(OCC(=O)NCCC[N+](C)(C)CC(=O)NCC(=O)NCC(=O)[O-])c(cc1OCC(=O)NCCC[N+](C)(C)CC(=O)NCC(=O)NCC(=O)[O-])Cc1cc(OCC(=O)NCCC[N+](C)(C)CC(=O)NCC(=O)NCC(=O)[O-])c(cc1OCC(=O)NCCC[N+](C)(C)CC(=O)NCC(=O)NCC(=O)[O-])Cc1cc(OCC(=O)NCCC[N+](C)(C)CC(=O)NCC(=O)NCC(=O)[O-])c(cc1OCC(=O)NCCC[N+](C)(C)CC(=O)NCC(=O)NCC(=O)[O-])C2)CC(=O)NCC(=O)NCC(=O)[O-] [Compound 3] |  | did not show statistically significant cytotoxic activity | >100 * μg/mL | did not show statistically significant cytotoxic activity | No significant differences |  |  |  | 

SMILES | polydispersity index (PDI) ([1]; 1 × 10^–4 M) | size of aggregates d ([1]; 1 × 10^–4 M) | polydispersity index (PDI) ([1]; 1 × 10^–5 M) | size of aggregates d ([1]; 1 × 10^–5 M) | polydispersity index (PDI) ([1]; 1 × 10^–6 M) | size of aggregates d ([1]; 1 × 10^–6 M) | IC50 (A549 cells [2]) | lgKa, logarithm of the association constant with DNA (DNA from salmon sperm) | cytotoxic activity (A549 cells [2]) | IC50 (LEC cells) | cytotoxic activity (LEC cells) | change of toxicity on combined action with GIS (A549 cells [3]) | concentration at which cytotoxic effect was recorded (A549 cells [2]; A549) | concentration without ability to reduce viability (A549 cells [2]; A549) | concentration at which cytotoxic effect was recorded (LEC cells) | concentration without ability to reduce viability (LEC cells)
CC(C)N.O=C(O)CNCP(=O)(O)O [GIS, glyphosate isopropylamine salt, reference compound] |  |  |  |  |  |  | 10,180 μg/mL | 4.92 |  | 11,430 μg/mL |  |  | ≥ 10000 µg/mL | ≤ 5000 µg/mL | ≥ 10000 µg/mL | ≤ 5000 µg/mL
